According to patent US10737995B2, “Nuclear receptor modulators and their use for the treatment and prevention of cancer” (The United States of America, as represented by the …, priority 2011, dated 2020):

Tests used:
[1] = test system: PSA mRNA expression in LNCaP cells; test: PSA mRNA expression in LNCaP cells, real time RT-PCR; type: cell-based, human; conditions: for block of R1881-induced PSA mRNA induction: in the presence of R1881, dose-dependent manner (FIG. 6); for inhibition of PSA mRNA: LNCaP cells (FIG. 12); for inhibition of PSA mRNA expression: 500 nM (FIG. 9); for agonistic effects on PSA and TMPRSS2 mRNA levels: dose dependent study (FIG. 9)
Method: FIG. 3 is a graph showing the inhibition of PSA mRNA expression. […] As shown in the graph, a hit was identified that inhibited over 90% PSA mRNA expression in LNCaP cells at 10 μM after 20 hours of treatment.
(§1) LNCaP cells were incubated for 3 days in phenol red-free RPMI 1640 supplemented with 10% charcoal-stripped FBS and 1% antimycotic-antibiotic solution, and then cells were treated for 20 hours. The concentration of R1881 was 0.5 nM, and that of the corresponding compounds was 10, 5 or 1 μM, respectively. Compound 49 inhibited PSA mRNA expression 80% in the presence of R1881 at 5 μM. This activity was similar to bicalutamide.
(§2) For PSA, TMPRSS2, and UBE2C mRNA determination, LNCaP cells or 22Rv1 cells, were cultured and treated with the corresponding compounds for 20 hours in the presence or absence of the synthetic androgen R1881. Total RNA was isolated from cultured cells using the RNeasy RNA Isolation Kit (Qiagen). The RNAs were reverse transcribed immediately after RNA extraction with the High Capacity cDNA Reverse Transcription Kit (Applied Biosystems), using random primers included in the kit, according to the manufacturer's instructions. The cDNA products were stored at −20° C. until the PCR analysis was performed. Real-time PCR primers were designed using Primer Express Applications (Applied Biosystems). The primer sequences for real-time PCR were as follows:
(§3) The mRNA level and total protein in cells were measured after treatment with either control, bicalutamide (0.08 μM to 1.25 μM), or MDV3100 (an antiandrogen) and either about 2.5 μM or about 1.0 μM of Compounds 1-117 respectively. It was known that the expression of PSA mRNA in LNCaP cells is driven by an AR mediated pathway. While PSA is androgen-dependent AR-target gene, UBE2C is androgen-independent AR-target gene. The PSA, TMPRSS2 and UBE2C mRNA levels were normalized by the rRNA level.

[2] = test system: TMPRSS2 mRNA expression in LNCaP cells; test: TMPRSS2 mRNA expression in LNCaP cells, real time RT-PCR; type: cell-based, human; conditions: for block of R1881-induced TMPRSS2 mRNA induction: in the presence of R1881, dose-dependent manner (FIG. 6); for inhibition of TMPRSS2 mRNA: LNCaP cells (FIG. 12)
Method: as §1, §2, §3

[3] = test system: R1881-induced AR translocation to the nucleus; test: AR translocation, immunocytochemistry in LNCaP cells; type: cell-based, human; conditions: 10 μM for three hours, then 1 nM R1881 for three hours (FIG. 7)
Method: FIG. 7 is a graph showing the results of an AR translocation experiment. LNCaP cells were incubated on cover slips in phenol red free RPMI 1640 with 10% charcoal stripped FBS and 1% antimycotic-antibiotic solution for three days. Cells were treated with DMSO, bicalutamide (10 μM) or Compound 11 for three hours, followed by treatment with 1 nM R1881 for three hours. Cells were washed with PBS, fixed with 0.4% paraformaldehyde for 30 min at 37° C., washed with PBS, permeabilized with 0.4% Triton X-100 for 10 min, and then stained with anti-AR antibody (1:100 dilution, Santa Cruz Biotechnology, Santa Cruz, Calif.) for 1 hour at room temperature. After washing with PBS, cells were stained with FITC-labeled goat anti-rabbit IgG (1:200 dilution, BD Biosciences, San Jose, Calif.) for 1 hour at room temperature. After washing with PBS, cells were incubated for 10 min with Hoechst 33342 for nuclear staining, washed, and the dried cover slips were mounted on glass slides with SlowFade Gold anti-fade reagent (Invitrogen). Fluorescence images were obtained using a Leica® DM IRB fluorescence microscope, and nuclear-to-cytoplasmic AR ratios were measured using OpenLab® (Perkin Elmer, Waltham, Mass.) software. […]

[4] = test system: UBE2C mRNA expression in LNCaP cells; test: UBE2C mRNA expression in LNCaP cells, real time RT-PCR; type: cell-based, human; conditions: LNCaP cells (FIG. 12)
Method: as §2, §3

[5] = test system: PSA mRNA expression in 22Rv1 cells; test: PSA mRNA expression in 22Rv1 cells, real time RT-PCR; type: cell-based, human
Method: as §2
[…] It was known that the expression of PSA mRNA in LNCaP cells is driven by an AR mediated pathway. While PSA is androgen-dependent AR-target gene, UBE2C is androgen-independent AR-target gene. The PSA, TMPRSS2 and UBE2C mRNA levels were normalized by the rRNA level.

[6] = test system: UBE2C mRNA expression in 22Rv1 cells; test: UBE2C mRNA expression in 22Rv1 cells, real time RT-PCR; type: cell-based, human; conditions: 22Rv1 cells (FIG. 13)
Method: as §2, §3

LNCaP cells = test: LNCaP cell growth, Trypan blue viable cell count; type: cell-based; conditions: Homo sapiens, 72 h, 3 days incubation, Trypan blue viable cell number, read-out: IC50 of LNCaP cell growth inhibition
Method: LNCaP cells were incubated with Compound 49 for 3 days. Viable cell number was determined by Trypan blue staining and counting in a hemocytometer. The IC50 value of Compound 49 was 3 μM.

AR in LNCaP cells = test: AR Western blot, LNCaP cells treated 6 hours; type: cell-based, human; conditions: 10 μM (data not shown)
Method: LNCaP cells were maintained as above. At 50% confluence, cells were washed several times in serum-free RPMI-1640 medium, and re-cultured for 72 hours in RPMI-1640 medium containing 10% charcoal-stripped fetal bovine serum. Cells were treated with R1881 (0.5 nM), with, or without 10 μM, 5 μM or 1 μM of Compounds 1-117, and then cells were cultured for 20 hours. Nuclear and cytoplasmic protein fractionation was performed using NE-PER Nuclear and Cytoplasmic Extraction Reagents Kit (Thermo Scientific Pierce Protein Research Products) according to the manufacturer's instructions. Quantification of AR in nucleus and cytosol was performed by Western blotting with an AR-specific antibody following polyacrylamide gel electrophoresis.
LNCaP cells were also tested after treatment for only 6 hours. Compounds 49, 80 and 86, as well as KU135 (a C-terminal Hsp90 inhibitor) and 17-AAG (a known AR degradation inducer), were tested at 2.5, 5, and 10 μM as well as control (DMSO vehicle). […] LAPC-4 cells (a human prostate cancer cell line with wt AR) were tested against Compounds 80, 86, KU-32 (another C-terminal Hsp90 inhibitor) and 17-AAG.

[7] = test system: genome-wide transcriptional response; test: Microarray analysis of genome-wide transcriptional response; type: cell-based, human
Method: This example illustrates that Compound 86 has an impact on AR-driven gene expression (PSA) and androgen-independent AR-driven gene expression (e.g., UBE2C). A microarray analysis was performed on the genome-wide transcriptional response to Compound 86 compared with the antiandrogens bicalutamide and MDV3100, and solvent DMSO. Each compound was tested at two concentrations: 1 and 5 μM. The data were subjected to bioinformatics analysis using the Partek Genomics Software. […] FIG. 19B depicts a different view in 3-dimensional space again reinforcing the differences between Compound 86 versus DMSO, bicalutamide and MDV3100. This visual assessment is consistent with the data showing that Compound 86 and not DMSO, bicalutamide, or MDV3100, can inhibit the androgen-independent, androgen receptor-dependent transcriptional program of castrate-resistant prostate cancer.

[8] = test system: TMPRSS2 mRNA expression in 22Rv1 cells; test: TMPRSS2 mRNA expression in 22Rv1 cells, real time RT-PCR; type: cell-based, human; conditions: 22Rv1 cells (FIG. 13)
Method: as §2, §3

[9] = LNCaP cells, synthetic androgen R1881 (FIG. 6)

`COc1ccc(C(=O)/C=C/c2ccc([N+](=O)[O-])cc2)c(OC)c1OC` [Compound 11] was tested, and the “block of R1881-induced PSA mRNA induction” value [1] was “blocked”, the “block of R1881-induced TMPRSS2 mRNA induction” value [2] was “blocked” and the “inhibition of R1881-induced AR translocation to the nucleus (nuclear-to-cytoplasmic AR ratio)” value [3] was “markedly more active than bicalutamide”.

For `COc1ccc(C(=O)/C=C/c2cccc([N+](=O)[O-])c2)c(OC)c1OC` [Compound 12], the “agonistic effect on AR target gene expression” value ([1]; 1 μM, PSA and TMPRSS2, in the presence of R1881 (FIG. 6)) was “weak agonistic effect”, the “activity in blocking R1881-induced AR target gene expression relative to Compound 11” value ([1]; high concentrations, PSA and TMPRSS2, in the presence of R1881) was “more active” and the “block of R1881-induced PSA mRNA induction” value [1] was “blocked”. The “block of R1881-induced TMPRSS2 mRNA induction” value [2] was “blocked”.

With `COc1ccccc1C(=O)/C=C/c1ccccc1[N+](=O)[O-]` [Compound 49] the “inhibition of PSA mRNA” value [1] was “inhibited”, the “inhibition of PSA mRNA expression in the presence of R1881” value ([1]; LNCaP cells, 0.5 nM R1881, 5 μM, 20 hours (FIG. 10)) was 80% and the “inhibition of PSA mRNA expression” value ([1]; LNCaP cells) was 50%. The “agonistic effects on PSA and TMPRSS2 mRNA levels” value ([1]; LNCaP cells) was “No agonistic effects”, the “inhibition of TMPRSS2 mRNA” value [2] was “inhibited” and the “inhibition of UBE2C mRNA” value [4] was “not effective”. For the same molecule, the “inhibition of PSA mRNA expression compared to control” value ([5]; 22Rv1 cells (FIG. 13)) was 80%, the “inhibition of UBE2C mRNA expression” value [6] was “completely failed to inhibit” and the IC50 (LNCaP cells) was 3 µM.

With `COc1cc(C(=O)/C=C/c2cccc([N+](=O)[O-])c2)cc(OC)c1OC` [Compound 80] the “inhibition in AR Western blot” value (AR in LNCaP cells) was “showed inhibition”.

For `COc1ccc(C(=O)/C=C/c2ccc(C#N)cc2)cc1OC` [Compound 103], the “inhibition of PSA mRNA” value [1] was “inhibited”, the “inhibition of PSA mRNA expression” value ([1]; LNCaP cells) was 50% and the “agonistic effects on PSA and TMPRSS2 mRNA levels” value ([1]; LNCaP cells) was “No agonistic effects”. For the same molecule, the “inhibition of TMPRSS2 mRNA” value [2] was “inhibited” and the “inhibition of UBE2C mRNA” value [4] was “not effective”.

In the case of `C[C@]1(O)CC[C@H]2[C@@H]3CCC4=CC(=O)CCC4=C3C=C[C@@]21C` [Compound R1881, methyltrienolone, reference compound], the “PSA mRNA induction compared with the DMSO control” value [1, 9] is reported as “about 500 fold” and the “TMPRSS2 mRNA induction compared with the DMSO control” value [2, 9] is reported as about 30 fold.

`CNC(=O)c1ccc(N2C(=S)N(c3ccc(C#N)c(C(F)(F)F)c3)C(=O)C2(C)C)cc1F` [MDV3100, 4-(3-(4-cyano-3-(trifluoromethyl)phenyl)-5,5-dimethyl-4-oxo-2-thioxoimidazolidin-1-yl)-2-fluoro-N-methylbenzamide] was tested, and the “sensitivity of PSA mRNA expression” value ([5]; 22Rv1 cells, 20 hours of exposure, 10 μM (FIG. 14)) was “insensitive” and the “inhibition of the androgen-independent, androgen receptor-dependent transcriptional program of castrate-resistant prostate cancer” value [7] was “not”.

For `CC(O)(CS(=O)(=O)c1ccc(F)cc1)C(=O)Nc1ccc(C#N)c(C(F)(F)F)c1` (stereo not drawn) [bicalutamide, reference compound], the IC50 ([1]; Homo sapiens, LNCaP cells, dose-dependent study (FIG. 4), read-out: IC50 of PSA mRNA inhibition) was 0.3 µM, the “inhibition of PSA mRNA expression” value ([5]; 22Rv1 cells (FIG. 13)) was “No inhibition” and the “inhibition of TMPRSS2 mRNA expression” value [8] was “No inhibition”. For the same molecule, the “inhibition of UBE2C mRNA expression” value [6] was “No inhibition”.
